Test results published in patent US9586936B2, “Heteroarylamine derivatives as protein kinase inhibitors” (KOREA INSTITUTE OF SCIENCE AND TECHNOLOGY, priority 2014, dated 2017).

Tests used:
[1] = system: bladder cancer cell line RT112; assay: inhibition of proliferation of cancer cells; format: cell-based; details: Homo sapiens, RT-112, read-out: Ability of inhibiting proliferation of RT112 (GI50)
Protocol: The ability of the compound of the present invention of inhibiting the proliferation of the bladder cancer cell line RT112 was determined as the GI50 value.

microsomal stability [2] = format: in vitro ADME, Dog; details: Dog
Protocol: (§1) The microsomal stability of N-(2,6-dichloro-3,5-dimethoxyphenyl)-1-(6-((4-(4-ethylpiperazin-1-yl)phenyl)amino)pyrimidin-4-yl)-1H-benz[d]imidazol-2-amine synthesized in Example 1, as a representative compound of the present invention, was evaluated.

microsomal stability [3] = format: in vitro ADME, Human; details: Human
Protocol: as §1

microsomal stability [4] = format: in vitro ADME, Rat; details: Rat
Protocol: as §1

microsomal stability [5] = format: in vitro ADME, Mouse; details: Mouse
Protocol: as §1

[6] = system: RT112 bladder cancer cell line; details: literature statement; cited from earlier work
FGFR3 = FGFR3 (Homo sapiens, UniProt P22607); details: literature statement; cited from earlier work
Chain of FGFR3 (P22607 23-806): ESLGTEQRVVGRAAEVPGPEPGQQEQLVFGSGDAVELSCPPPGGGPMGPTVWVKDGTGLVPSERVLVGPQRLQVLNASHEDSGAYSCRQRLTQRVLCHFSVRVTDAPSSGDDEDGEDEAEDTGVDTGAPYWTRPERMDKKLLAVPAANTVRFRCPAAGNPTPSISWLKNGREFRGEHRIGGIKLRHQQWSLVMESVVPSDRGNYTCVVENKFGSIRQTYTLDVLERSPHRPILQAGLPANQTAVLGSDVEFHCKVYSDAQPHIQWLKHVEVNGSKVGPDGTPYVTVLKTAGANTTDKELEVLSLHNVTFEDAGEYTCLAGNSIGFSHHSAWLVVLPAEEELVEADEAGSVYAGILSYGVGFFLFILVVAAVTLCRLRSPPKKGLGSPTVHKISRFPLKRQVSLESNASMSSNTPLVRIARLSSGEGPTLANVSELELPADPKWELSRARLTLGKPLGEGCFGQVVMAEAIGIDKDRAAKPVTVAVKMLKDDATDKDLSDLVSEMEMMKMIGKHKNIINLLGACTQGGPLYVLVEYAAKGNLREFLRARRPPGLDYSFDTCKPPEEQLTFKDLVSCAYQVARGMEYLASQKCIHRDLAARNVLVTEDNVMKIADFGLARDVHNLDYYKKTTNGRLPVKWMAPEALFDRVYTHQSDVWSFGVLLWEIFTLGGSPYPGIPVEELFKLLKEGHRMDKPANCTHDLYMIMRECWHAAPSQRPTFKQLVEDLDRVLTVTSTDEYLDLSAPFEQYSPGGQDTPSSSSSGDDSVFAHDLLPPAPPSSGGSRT

COc1cc(OC)c(Cl)c(Nc2nc3ccccc3n2-c2cc(Nc3ccccc3)ncn2)c1Cl [Example 10, N-(2,6-dichloro-3,5-dimethoxyphenyl)-1-(6-(phenylamino)pyrimidin-4-yl)-1H-benz[d]imidazol-2-amine]
GI50 [1]: < 1 µM

COc1cc(N2CCOCC2)ccc1Nc1cc(-n2c(Nc3c(Cl)c(OC)cc(OC)c3Cl)nc3ccccc32)ncn1 [Example 4, N-(2,6-dichloro-3,5-dimethoxyphenyl)-1-(6-((2-methoxy-4-morpholinophenyl)amino)pyrimidin-4-yl)-1H-benz[d]imidazol-2-amine]
GI50 [1]: < 1 µM

COc1cc(N2CCN(C)CC2)ccc1Nc1cc(-n2c(Nc3c(Cl)c(OC)cc(OC)c3Cl)nc3ccccc32)ncn1 [Example 2, N-(2,6-dichloro-3,5-dimethoxyphenyl)-1-(6-((2-methoxy-4-(4-methylpiperazin-1-yl)phenyl)amino)pyrimidin-4-yl)-1H-benz[d]imidazol-2-amine]
GI50 [1]: < 1 µM

Cc1ncc2n1-c1ccc(Cl)cc1C(c1ccccc1F)=NC2 [midazolam, reference compound]
microsomal stability (% at time) (microsomal stability [2]; 0 min): 100.00%
microsomal stability (% at time) (microsomal stability [2]; 5 min): 6.23%
microsomal stability (% at time) (microsomal stability [2]; 10 min): 0.59%
microsomal stability (% at time) (microsomal stability [2]; 15 min): 0.27%
microsomal stability (% at time) (microsomal stability [2]; 30 min): 0.10%
microsomal stability (% at time) (microsomal stability [3]; 0 min): 100.00%
microsomal stability (% at time) (microsomal stability [3]; 5 min): 38.75%
microsomal stability (% at time) (microsomal stability [3]; 10 min): 12.92%
microsomal stability (% at time) (microsomal stability [3]; 15 min): 5.60%
microsomal stability (% at time) (microsomal stability [3]; 30 min): 0.73%
microsomal stability (% at time) (microsomal stability [4]; 0 min): 100.00%
microsomal stability (% at time) (microsomal stability [4]; 5 min): 13.65%
microsomal stability (% at time) (microsomal stability [4]; 10 min): 1.01%
microsomal stability (% at time) (microsomal stability [4]; 15 min): 0.14%
microsomal stability (% at time) (microsomal stability [4]; 30 min): 0.04%
microsomal stability (% at time) (microsomal stability [5]; 0 min): 100.00%
microsomal stability (% at time) (microsomal stability [5]; 5 min): 10.42%
microsomal stability (% at time) (microsomal stability [5]; 10 min): 1.13%
microsomal stability (% at time) (microsomal stability [5]; 15 min): 0.18%
microsomal stability (% at time) (microsomal stability [5]; 30 min): 0.05%

COc1cc(OC)c(Cl)c(Nc2nc3ccccc3n2-c2cc(Nc3ccc(CN4CCN(CC5CCCCC5)CC4)cc3)ncn2)c1Cl [Example 6, 1-(6-((4-((4-(cyclohexylmethyl)piperazin-1-yl)methyl)phenyl)amino)pyrimidin-4-yl)-N-(2,6-dichloro-3,5-dimethoxyphenyl)-1H-benz[d]imidazol-2-amine]
GI50 [1]: < 10 µM

COc1cc(OC)c(Cl)c(Nc2nc3ccccc3n2-c2cc(Nc3ccc(N4CCC(N5CCCCC5)CC4)c(C(F)(F)F)c3)ncn2)c1Cl [Example 5, 1-(6-((4-([1,4′-bipiperidin]-1′-yl)-3-(trifluoromethyl)phenyl)amino)pyrimidin-4-yl)-N-(2,6-dichloro-3,5-dimethoxyphenyl)-1H-benz[d]imidazol-2-amine]
GI50 [1]: < 10 µM

COc1cc(OC)c(Cl)c(Nc2nc3ccccc3n2-c2cc(Nc3ncccn3)ncn2)c1Cl [Example 11, N-(2,6-dichloro-3,5-dimethoxyphenyl)-1-(6-(pyrimidin-2-ylamino)pyrimidin-4-yl)-1H-benz[d]imidazol-2-amine]
GI50 [1]: < 1 µM

CCN1CCN(c2ccc(Nc3cc(N(C)C(=O)Nc4c(Cl)c(OC)cc(OC)c4Cl)ncn3)cc2)CC1 [NVP-BGJ398, 3-(2,6-dichloro-3,5-dimethoxyphenyl)-1-{6-[4-(4-ethyl-piperazin-1-yl)phenylamino]pyrimidin-4-yl}-1-methylurea]
anticancer activity for the RT112 bladder cancer cell line, in words [6]: effective anticancer activity
inhibition activity against FGFR3, in words (FGFR3): selective inhibition activity

COc1cc(OC)c(Cl)c(Nc2nc3ccccc3n2-c2cc(Nc3ccc(N4CCOCC4)cc3)ncn2)c1Cl [Example 3, N-(2,6-dichloro-3,5-dimethoxyphenyl)-1-(6-((4-morpholinophenyl)amino)pyrimidin-4-yl)-1H-benz[d]imidazol-2-amine]
GI50 [1]: < 1 µM

CNc1cc(-n2c(Nc3c(Cl)c(OC)cc(OC)c3Cl)nc3ccccc32)ncn1 [Example 9, N-(2,6-dichloro-3,5-dimethoxyphenyl)-1-(6-(methylamino)pyrimidin-4-yl)-1H-benz[d]imidazol-2-amine]
GI50 [1]: < 1 µM

COc1cc(OC)c(Cl)c(Nc2nc3ccccc3n2-c2cc(N)ncn2)c1Cl [Example 8]
GI50 [1]: < 1 µM
